Reference: ChEMBL document CHEMBL3244278, “Cerebrovasodilatation through selective inhibition of the enzyme carbonic anhydrase. 1. Substituted benzenedisulfonamides” (J Med Chem, 1978)
Active and inactive are the calls of the source. The rule behind the calls is not given here.

Key:
[1] = system: Mus musculus; test: Anticonvulsant activity in mouse assessed as protection against electroshock-induced maximal seizure effect up to 100 mg/kg, po administered via gavage 2 hrs prior to electroshock stimulation; format: functional, organism-based; design: dose 100 mg/kg
[2] = Dissociation constant, pKa of the compound; format: physicochemical
[3] = Protein binding in plasma (unknown origin); format: ADME, cell-free; conditions: unidentified, read-out: PPB (converted)
[4] = Octanol-water partition coefficient, log P of the compound; format: physicochemical
[5] = Elimination half life in iv dosed dog plasma; format: ADME, organism-based, Canis lupus familiaris; conditions: read-out: beta t1/2 (converted)
[6] = system: Mus musculus; test: Anticonvulsant activity in po dosed mouse assessed as protection against electroshock-induced maximal seizure effect administered via gavage 2 hrs prior to electroshock stimulation; format: functional; conditions: for ED50: Mus musculus, po
[7] = system: Rattus norvegicus; test: Induction of diuretic activity in po dosed rat assessed as increase in urine output after 4 hrs; format: organism-based

SMILES | Activity [1] | other results
COC1CCN(S(=O)(=O)c2ccc(S(N)(=O)=O)c(C(F)(F)F)c2)CC1 | inactive | –
NS(=O)(=O)c1nnc(NS(=O)(=O)c2ccccc2)s1 [BENZOLAMIDE] | – | pKa [2]: 3.2; fraction unbound [3]: 0.08
COC1CCN(S(=O)(=O)c2c(Cl)cc(S(N)(=O)=O)cc2Cl)CC1 | inactive | –
COC1CCN(S(=O)(=O)c2cc(C)c(S(N)(=O)=O)c(C)c2)CC1 | inactive | –
NS(=O)(=O)c1ccc(S(=O)(=O)N2CCC3(CC2)NC(=O)NC3=O)cc1Cl | inactive | –
COC1CCN(S(=O)(=O)c2ccc(S(N)(=O)=O)c(Cl)c2)CC1 [UK-12130] | – | logP [4]: 0.62; half-life [5]: 3 h
CC(=O)Nc1nnc(S(N)(=O)=O)s1 [ACETAZOLAMIDE] | – | Activity [6]: 36 mg/kg; ED50 [7]: 5 mg/kg
COC1(C)CCN(S(=O)(=O)c2ccc(S(N)(=O)=O)cc2)CC1 | inactive | –
NS(=O)(=O)c1cc(Cl)c(S(=O)(=O)N2CCOCC2)c(Cl)c1 | inactive | –
NS(=O)(=O)c1ccc(S(=O)(=O)N2CCOCC2)cc1C(F)(F)F | inactive | –
COC1CCN(S(=O)(=O)c2cc(Cl)c(S(N)(=O)=O)cc2C)CC1 | inactive | –
NS(=O)(=O)c1ccc(S(=O)(=O)N2CCC(O)(c3ccccn3)CC2)cc1 | – | ED50 [6]: 40 mg/kg
CC(=O)C1CCN(S(=O)(=O)c2ccc(S(N)(=O)=O)cc2)CC1 | inactive | –
CN1CN(c2ccccc2)C2(CCN(S(=O)(=O)c3ccc(S(N)(=O)=O)cc3)CC2)C1=O | – | ED50 [6]: > 40 mg/kg
